Test results taken from patent US10940139B2, “Compounds that interact with the Ras superfamily for the treatment of cancers, inflammatory diseases, rasopathies, and fibrotic disease” (Shy Therapeutics LLC, priority 2017, dated 2021).

Experiments:
Type in all cases: cell-based
[1] = tested on: MIA-PACA2 pancreatic cancer cell lines; experiment: Cell proliferation assay (CellTiter 96 AQueous One); settings: Homo sapiens, MIA PaCa-2; for inhibition at 30 µM: MIA-PACA2; for IC50: MIA-PACA2, same assay as the % inhibition (standard conditions)
Experimental: Cell lines: Tumor-derived pancreatic cancer cell lines MIA-PACA2 were purchased from ATCC and grown in complete DMEM-High Glucose medium supplemented with penicillin (100 U/mL), streptomycin (100 μg/mL), and 10% heat-inactivated FBS at 37° C. in a humidified incubator with 5% CO2.
Method: Cells are plated at 1000 cells/well density in 96-wells plate, starved ON, and the next day tested small molecules are added to the cells in the final concentration of 30 μM with 0.3% DMSO 3 hours prior to 10% FBS addition. After serum addition cells are incubated for 6 days at 37° C. in a humidified incubator with 5% CO2. For IC50 value determination, serial dilutions of compounds were added to cells under the same conditions.
Assay: At the end of the incubation period, cell cultures are tested using the CellTiter 96® AQueous One Solution Cell Proliferation Assay kit (Promega Corporation, Madison, Wis.) according to the manufacturer specifications. Briefly, assay is performed by adding 20 μl of the CellTiter 96 Aqueous One Solution Reagent directly to culture wells, followed by for 1-4 hours incubation at 37° C. in a humidified incubator with 5% CO2. At the end of incubation time, absorbance at 492 nm is recorded with the 96-well plate reader Eppendorf AF2200, and degree of small molecule-dependent proliferation inhibition is calculated from raw data assuming No Serum cells value as 100%.

[2] = tested on: TNFα production in RAW 264.7 macrophage cell line; experiment: Mouse TNF alpha quantification assay (LPS-stimulated macrophages, ELISA); settings: RAW264.7, RAW 264.7 murine leukemia virus transformed macrophage cell lines, LPS stimulation, read-out: TNF-α % Inhibition at 30 μM
[3] = tested on: IL6 production in RAW 264.7 macrophage cell line; experiment: Mouse IL6 quantification assay (LPS-stimulated macrophages, ELISA); settings: RAW264.7, RAW 264.7 murine leukemia virus transformed macrophage cell lines, LPS stimulation, read-out: IL-6 % Inhibition at 30 μM

SMILES | inhibition at 30 µM [1] [%] | further results
Cc1cnc(-c2ccccn2)nc1NC(=O)C(C)c1ccc(C#N)cc1 (centres unmarked) [drawing 1690] | 76 to 100 | 
Oc1nc(-c2ccccn2)nc2c1ncn2-c1ccccn1 [drawing 1584] | 76 to 100 | 
c1ccc(-c2csc3nc(-c4ccccn4)nc(N4CCN(CCN5CCCC5)CC4)c23)cc1 [drawing 1616] | 76 to 100 | 
O=C(Nc1nnc(-c2ccccn2)[nH]1)c1ccc(=O)[nH]n1 [drawing 1470] | 25 to 50 | 
Oc1nc(-c2ccccn2)nc2c(-c3cncc(F)c3)csc12 [drawing 1786] | 76 to 100 | 
O=C(NCCc1ccnc(O)n1)c1csc2nc(-c3ccccn3)nc(N3CCOCC3)c12 [drawing 1774] | 1 to 25 | 
O=C(Nc1nc(-c2ccccn2)cs1)c1ccc2[nH]cnc2c1 [drawing 1478] | 76 to 100 | 
CCCCSc1nc(-c2cccs2)c(C(=O)C(F)(F)F)cc1C#N [drawing 1523] | 76 to 100 | 
O=C(CN1CCN(c2nc(-c3ccccn3)nc3scc(-c4ccccc4)c23)CC1)N1CCCCC1 [drawing 1611] | 76 to 100 | 
CC1CCN(C(=O)c2csc3c(O)nc(-c4ccccn4)nc23)CC1 [drawing 1563] | 76 to 100 | 
COc1ccccc1C1CN(C(=O)c2csc3c(O)nc(-c4ccccn4)nc23)CCN1 (centres unmarked) [drawing 1665] | 76 to 100 | 
CC(C)(C(=O)Nc1ccnc(-c2ccccn2)n1)c1ccc(C#N)cc1 [drawing 1645] | 76 to 100 | 
CCOc1cc(C(=O)Oc2c(C)ccc(C)c2C)cc(OCC)c1OCC [drawing 1527] | 76 to 100 | 
O=C(Nc1nnc(-c2ccccn2)[nH]1)c1ccc2c(c1)CCO2 [drawing 1386] | 76 to 100 | 
Cc1cc2c(=O)nc(-c3cc(OCC(F)F)ccn3)[nH]c2s1 [drawing 1500] | 76 to 100 | 
O=C(CNc1nc(-c2ccccn2)nc2scc(-c3ccccc3)c12)NC1CC1 [drawing 1612] | 76 to 100 | 
CC(Oc1ccc(C(=O)Nc2nnc(-c3ccccn3)[nH]2)cn1)c1ccccc1 (centres unmarked) [drawing 1425] | 76 to 100 | 
O=C(Nc1nnc(-c2ccccn2)[nH]1)C1CCCC(C(F)(F)F)C1 (centres unmarked) [drawing 1430] | 76 to 100 | 
Cc1cnc(-c2ccccn2)nc1NC(=O)C1CCCc2cc(C#N)ccc21 (centres unmarked) [drawing 1703] | 76 to 100 | 
COCC1CCN(C(=O)c2csc3c(O)nc(-c4ccccn4)nc23)CC1 [drawing 1564] | 76 to 100 | 
CNC(=O)c1ccc(-c2csc3c(O)nc(-c4ccccn4)nc23)cc1C [drawing 1761] | 76 to 100 | 
CC(Oc1ccc(C#N)cc1)C(=O)Nc1nnc(-c2ccccn2)[nH]1 (centres unmarked) [drawing 1437] | 76 to 100 | 
CC(C(=O)Nc1nc(-c2ccccn2)nc2sccc12)c1ccc(C#N)cc1 (centres unmarked) [drawing 1691] | 76 to 100 | 

SMILES | inhibition at 30 µM [1] [%] | further results
CS(=O)(=O)N1CCCc2cc(C(=O)N3CCCc4c(O)nc(-c5ccccn5)nc43)ccc21 [drawing 1547] | 76 to 100 | 
Cc1[nH]nc(CCCN(C)c2nc(-c3ccccn3)nc3sc(-c4ccccc4)cc23)c1C#N | 76 to 100 | 
N#Cc1ncn(-c2nc(-c3ccccn3)nc3sc(-c4ccccc4)cc23)n1 [drawing 1595] | 76 to 100 | IC50 [1]: 501 to 1000 nM
O=C(c1csc2c(O)nc(-c3ccccn3)nc12)N1CCOC(c2ccccc2Cl)C1 (centres unmarked) [drawing 1662] | 76 to 100 | 
N#Cc1ccc(COCC(=O)Nc2nc(-c3ccccn3)nc3sccc23)cc1 [drawing 1692] | 76 to 100 | 
N#CCc1ccc(OCC(=O)Nc2nnc(-c3ccccn3)[nH]2)cc1 [drawing 1462] | 1 to 25 | 
Oc1nc(-c2ccccn2)nc2c(-c3ccccc3Cl)csc12 [drawing 1582] | 76 to 100 | IC50 [1]: 100 to 500 nM
Cc1cc(OC(F)F)ccc1-c1csc2c(O)nc(-c3ccccn3)nc12 [drawing 1754] | 76 to 100 | 
Nc1nc(O)c2scc(C(=O)N3CCC(N4CCCC4=O)CC3)c2n1 [drawing 1559] | 25 to 50 | 
COc1cccc(CN2CCN(C(=O)c3csc4c(O)nc(-c5ccccn5)nc34)CC2)c1 [drawing 1656] | 76 to 100 | 
COc1ccc(COCC(=O)Nc2nnc(-c3ccccn3)[nH]2)cc1 [drawing 1471] | 1 to 25 | 
O=C(Nc1nnc(-c2ccccn2)[nH]1)c1ccc(Oc2ccccc2)nc1 [drawing 1410] | 51 to 75 | 
c1ccc(-c2nc(N3CCOCC3)c3ccsc3n2)nc1 [drawing 1588] | 51 to 75 | 
O=C(c1csc2c(O)nc(-c3ccccn3)nc12)N1CCOC(c2ccccc2)C1 (centres unmarked) [drawing 1659] | 76 to 100 | 
O=C(NCCc1ccnc(O)c1)c1csc2nc(-c3ccccn3)nc(N3CCOCC3)c12 [drawing 1676] | 51 to 75 | 
Cc1ccc(CC(=O)Nc2nnc(-c3ccccn3)[nH]2)s1 [drawing 1433] | 76 to 100 | 
O=C(c1csc2c(O)nc(-c3ccccn3)nc12)N1CCNC(Cc2ccccc2)C1 (centres unmarked) [drawing 1671] | 76 to 100 | 
COc1ccc(CC(=O)Nc2nnc(-c3ccccn3)[nH]2)cc1 [drawing 1408] | 76 to 100 | 
Cc1nc(-c2ccccn2)sc1C(=O)Nc1nnc(-c2ccccn2)[nH]1 [drawing 1444] | 76 to 100 | 
N#Cc1cccc(N2CCN(C(=O)c3csc4c(O)nc(-c5ccccn5)nc34)CC2)c1 [drawing 1649] | 76 to 100 | 
Cn1cc(C2CN(C(=O)c3csc4c(O)nc(-c5ccccn5)nc34)CCN2)cn1 (centres unmarked) [drawing 1670] | 1 to 25 | 
O=S1(=O)CCC(Nc2nc(-c3ccccn3)nc3scc(-c4ccccc4)c23)C1 (centres unmarked) [drawing 1615] | 76 to 100 | 
COc1cc(CCNC(=O)c2csc3nc(-c4ccccn4)nc(N4CCOCC4)c23)ccn1 [drawing 1641] | 51 to 75 | 

SMILES | inhibition at 30 µM [1] [%] | further results
Cc1sc2nc(-c3ccccn3)nc(NCCc3nccn3C)c2c1-c1ccccc1 [drawing 1597] | 76 to 100 | 
O=C(OCCc1ccccc1)N1CCCc2c(O)nc(-c3ccccn3)nc21 [drawing 1554] | 76 to 100 | 
CC1(O)CCN(C(=O)c2csc3c(O)nc(-c4ccccn4)nc23)CC1 [drawing 1572] | 76 to 100 | 
O=c1nc(-c2ccccn2)[nH]c2c1sc1ccccc12 [drawing 1499] | 76 to 100 | 
COCC(C)Nc1nc(-c2ccccn2)nc2sc(C)c(-c3ccccc3)c12 (centres unmarked) [drawing 1510] | 76 to 100 | IC50 [1]: > 1000 nM
O=C(NCCc1nnn[nH]1)c1csc2nc(-c3ccccn3)nc(N3CCOCC3)c12 [drawing 1679] | 51 to 75 | 
O=C(Nc1nnc(-c2ccccn2)[nH]1)c1ccc(OCC2CC2)cc1 [drawing 1434] | 76 to 100 | 
CC(C)C1=C(O)C2(CC2c2ccc(-c3ccccc3)cc2)C(C)CC1 (centres unmarked) [drawing 2068] |  | inhibition at 30 µM [2]: 1 to 25%; inhibition at 30 µM [3]: 0%
CC(C)(O)c1ccc(-c2csc3c(O)nc(-c4ccccn4)nc23)c(F)c1 [drawing 2272] |  | inhibition at 30 µM [2]: 76 to 100%; inhibition at 30 µM [3]: 76 to 100%
O=C(c1csc2c(O)nc(-c3ccccn3)nc12)N1CCN(Cc2ccccc2)CC1 [drawing 2187] |  | inhibition at 30 µM [2]: 0%; inhibition at 30 µM [3]: 76 to 100%
Cc1sc2c(O)nc(-c3ccccn3)nc2c1Br [drawing 2349] |  | inhibition at 30 µM [2]: 0%; inhibition at 30 µM [3]: 26 to 50%
Cn1ccnc1-c1nc(O)c2scc(-c3ccc(C(C)(C)C)cc3)c2n1 [drawing 2446] |  | inhibition at 30 µM [2]: 0%; inhibition at 30 µM [3]: 1 to 25%
CC(C)NC(=O)Nc1cccc(C(=O)Nc2nnc(-c3ccccn3)[nH]2)c1 [drawing 1926] |  | inhibition at 30 µM [2]: 1 to 25%; inhibition at 30 µM [3]: 0%
O=C(c1csc2c(O)nc(-c3ccccn3)nc12)N1CCNC(Cc2ccccc2)C1 (centres unmarked) [drawing 2202] |  | inhibition at 30 µM [2]: 1 to 25%; inhibition at 30 µM [3]: 76 to 100%
O=C(c1cc2nc(-c3ccccn3)nc(O)c2s1)N1CCN(c2ccccc2)CC1 [drawing 2234] |  | inhibition at 30 µM [2]: 0%; inhibition at 30 µM [3]: 26 to 50%
Oc1nc(-c2ccccn2)nc2c(-c3cncc(F)c3)csc12 [drawing 2302] |  | inhibition at 30 µM [2]: 0%; inhibition at 30 µM [3]: 51 to 75%
CN(CCCc1n[nH]c(N)c1C#N)c1nc(-c2ccccn2)nc2sc(-c3ccccc3)cc12 [drawing 2142] |  | inhibition at 30 µM [2]: 51 to 75%; inhibition at 30 µM [3]: 76 to 100%
COCCCCNC(=O)c1csc2nc(-c3ccccn3)nc(N3CCS(=O)(=O)CC3)c12 [drawing 2219] |  | inhibition at 30 µM [2]: 0%; inhibition at 30 µM [3]: 26 to 50%
COC(=O)c1sc2c(O)nc(-c3ccccn3)nc2c1C [drawing 2314] |  | inhibition at 30 µM [2]: 0%; inhibition at 30 µM [3]: 1 to 25%
Nc1nc(O)c2sc(-c3cccc(C(=O)NC4CCNC4=O)c3)cc2n1 (centres unmarked) [drawing 2369] |  | inhibition at 30 µM [2]: 1 to 25%; inhibition at 30 µM [3]: 1 to 25%
Oc1nc(-c2ccccn2)nc2c(-c3ccc(OC4CCCC4)cc3)csc12 [drawing 2255] |  | inhibition at 30 µM [2]: 0%; inhibition at 30 µM [3]: 76 to 100%
COc1ccc(-c2c(-c3ccccc3)sc3c(O)nc(-c4nccn4C)nc23)cn1 [drawing 2420] |  | inhibition at 30 µM [2]: 26 to 50%; inhibition at 30 µM [3]: 26 to 50%
